This passage reports IC50 and EC50 results from ChEMBL document CHEMBL1132907, “The design and synthesis of the high efficacy, non-peptide CCK1 receptor agonist PD170292” (Bioorg Med Chem Lett, 2000).

As a reminder, the IC50 is the concentration at which inhibition is half-maximal. As usually defined, the EC50 is the concentration needed to bring the measured effect to its halfway point.

In assay [1] the target is T1, Cholecystokinin receptor type A (Rattus norvegicus, UniProt P30551).
T1 sequence (P30551 whole entry): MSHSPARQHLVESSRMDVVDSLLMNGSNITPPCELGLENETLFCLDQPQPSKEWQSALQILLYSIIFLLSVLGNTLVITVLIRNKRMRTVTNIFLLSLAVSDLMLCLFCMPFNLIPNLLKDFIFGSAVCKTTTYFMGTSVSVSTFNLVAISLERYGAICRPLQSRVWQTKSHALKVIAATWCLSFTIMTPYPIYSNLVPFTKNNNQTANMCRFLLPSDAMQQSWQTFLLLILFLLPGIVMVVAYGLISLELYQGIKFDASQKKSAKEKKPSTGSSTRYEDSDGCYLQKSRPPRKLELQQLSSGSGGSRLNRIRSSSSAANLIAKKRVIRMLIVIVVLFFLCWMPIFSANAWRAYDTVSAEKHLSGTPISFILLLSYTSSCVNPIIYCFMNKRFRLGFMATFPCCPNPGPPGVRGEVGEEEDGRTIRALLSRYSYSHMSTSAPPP
The experiment in a line: Compound was evaluated for the binding affinity towards rat pancreatic Cholecystokinin type A receptor.

Assay [2] addresses T2, Gastrin/cholecystokinin type B receptor (Mus musculus, UniProt P56481).
T2 sequence (P56481 whole entry): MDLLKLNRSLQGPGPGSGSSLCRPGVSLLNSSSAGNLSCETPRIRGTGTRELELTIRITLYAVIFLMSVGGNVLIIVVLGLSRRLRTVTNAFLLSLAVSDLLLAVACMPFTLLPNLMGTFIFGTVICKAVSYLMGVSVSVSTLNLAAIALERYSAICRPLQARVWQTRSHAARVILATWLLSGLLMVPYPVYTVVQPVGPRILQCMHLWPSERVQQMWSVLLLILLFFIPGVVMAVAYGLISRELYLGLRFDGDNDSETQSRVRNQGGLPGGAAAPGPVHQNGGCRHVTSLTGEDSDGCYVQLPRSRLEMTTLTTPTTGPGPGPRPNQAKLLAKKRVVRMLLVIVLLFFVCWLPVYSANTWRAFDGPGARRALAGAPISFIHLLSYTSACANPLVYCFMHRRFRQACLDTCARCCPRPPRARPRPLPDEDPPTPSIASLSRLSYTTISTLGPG
As to the kind of experiment: Binding affinity towards Cholecystokinin type B receptor in mouse cortex membrane. The assay is classed as cell membranes.

The species named for the next assay is Rattus norvegicus. The experiment in a line: Compound was evaluated for the stimulation of amylase secretion in isolated rat pancreatic acini.
Assay [3] relates to Jurkat. The experiment in a line: Compound was tested for [Ca2+] mobilization in Jurkat cells at 1 uM; Inactive. It is filed as functional, cell-based, Homo sapiens.
For assay [4], the system named is Jurkat. As to the kind of experiment: Compound was evaluated for calcium mobilization in Jurkat cells. The assay is classed as functional, cell-based. Particulars: Homo sapiens; call rule not given here. In general terms: A change in cytosolic calcium serves as a functional read-out for many receptors and channels.

For the compound `O=C(CC(Cc1c[nH]c2ccccc12)(NC(=O)OC1C2CC3CC(C2)CC1C3)C(=O)NCCc1ccccc1)NCCCCNC(=O)Nc1ccccc1Cl` (configuration not stated), the IC50 in assay [1] was 150 nM; in assay [2] it was 3600 nM. For the same compound, the EC50 in the assay filed under Rattus norvegicus was found to be 480 nM.

For the compound `CC(Cc1c[nH]c2ccccc12)(NC(=O)OC1C2CC3CC(C2)CC1C3)C(=O)N[C@H](CC(=O)O)Cc1ccc(F)cc1` (single isomer, unassigned), the values for the 50% inhibitory concentration (IC50) in assay [1] and in assay [2] were 75 nM and 0.083 nM, respectively.

As to `Cc1ccccc1NC(=O)NCCCC[C@@H](CC(=O)O)NC(=O)[C@@](C)(Cc1c[nH]c2ccccc12)NC(=O)OC1C2CC3CC(C2)CC1C3` (some centres not stated) [PD-170292], the values for the 50% inhibitory concentration (IC50) (in assay [1]; in assay [2]; with Jurkat [4]) were 1.2 nM, 6.7 nM and 40 nM, respectively. The EC50 was 5 nM in the assay listed under Rattus norvegicus and “Not Active” in the assay with Jurkat [3].

Take `CSCC[C@H](NC(=O)[C@H](Cc1ccc(OS(=O)(=O)O)cc1)NC(=O)[C@@H](N)CC(=O)O)C(=O)NCC(=O)N[C@@H](Cc1c[nH]c2ccccc12)C(=O)N[C@@H](CCSC)C(=O)N[C@@H](CC(=O)O)C(=O)N[C@@H](Cc1ccccc1)C(N)=O` [SINCALIDE]: the results for the EC50 in the assay listed under Rattus norvegicus and with Jurkat [4] were 0.02 nM and 2 nM, respectively.
